Test results reported in patent US20140045205A1, “GLUTAMYL AMINOPEPTIDASE AS A MARKER OF RENAL DAMAGE” (UNIVERSIDAD DE GRANADA, priority 2010, published 2014).

How the values were obtained:
AlaAp = experiment: Urinary AlaAp activity in rats, fluorometric analysis with alanyl-β-naphthylamide; assay type: in vivo, Wistar rats; details: for AlaAp urinary activity change: rats, 6 weeks treatment (8% NaCl in diet; methimazole 300 mg/l drinking water), versus control group
Procedure: (§1) All treatments were maintained during 6 weeks. […] The GluAp, […] […] A blank was performed in duplicate for each sample.

AspAp = experiment: Urinary AspAp activity in rats, fluorometric analysis with aspartyl-β-naphthylamide; assay type: in vivo, Wistar rats
Procedure: as §1

CysAp = experiment: Urinary CysAp activity in rats, fluorometric analysis with cystinyl-β-naphthylamide; assay type: in vivo, Wistar rats
Procedure: as §1

[1] = rats, 8% NaCl in diet, 6 weeks
Procedure: (§2) On the one hand, 42 male Wistar rats of 250 g in weight from the animal house of the University of Valladolid were distributed in 6 groups (n=7) with the following treatments: Control, Salt (8% NaCl in the diet), Hypothyroid (methimazole, 300 mg/l in drinking water), Hypothyroid+Salt, Hyperthyroid (daily s.c. injection of thyroxine (T4) 200 μg.kg^−1.day^−1), and Hyperthyroid+Salt.

[2] = Proteinuria in rats (Bio-Rad DC Protein Assay kit, Lowry's method)
Procedure: as §2
(§3) At the end of the experiment, and after a 2-day period of adaptation to the metabolic cages, each animal was introduced in a metabolic cage during 24 hours. The dieresis was determined, and the urine was centrifuged for 10 min at 1,000 g, aliquoted and frozen at −80° C. until its use.
Proteinuria was determined using a commercial kit from Bio-Rad (DC Protein Assay kit) based on Lowry's method.

GluAp = experiment: Urinary GluAp activity in rats, fluorometric analysis with glutamyl-β-naphthylamide; details: for GluAp urinary activity change: rats, 6 weeks treatment (8% NaCl in diet; methimazole 300 mg/l drinking water; T4 200 μg/kg/day s.c.), versus control group
Procedure: as §2, §3
The GluAp, AlaAp, AspAp and CysAp activities were determined in duplicate by a fluorometric analysis using glutamyl-, alanyl-, aspartyl- and cystinyl-β-naphthylamide as substrates, respectively.
The substrates had been previously dissolved in 1 ml of DMSO and stored at -20° C.
The quantity of β-naphthylamine released as a result of the aminopeptidase activities was measured fluorometrically at an emission wavelength of 412 nm with excitation at 345 nm, taking a measurement of the fluorescence after 60 minutes, after stopping the reaction with 90 μl of 0.1 M acetate buffer.
A blank was performed in duplicate for each sample. […] The fluorescence difference between both measurements was quantified using a standard curve of β-naphthylamine dissolved in water at the concentrations of 12.5, 25, 50, 100 and 200 nmol/ml 90 μl of the incubation solution corresponding to each enzyme without the substrate were added to 20 μl of this solution, they were incubated during 60 minutes at 37° C., and 90 μl of 0.1 M acetate buffer were added. It was verified that the presence of the substrate in the incubation solutions in no way modified the fluorescence of the standard. All measurements were made in duplicate, and the linearity of the fluorescence obtained in the curve range was verified (0-200 nmol/ml).
Both for the determinations of the samples and for the blanks, reaction blanks were performed containing 20 μl of distilled water, 90 μl of incubation solution with or without substrate, respectively, and 90 μl of sodium acetate.
The specific activity of each aminopeptidase was expressed as nanomoles of hydrolyzed substrate per minute and per mg of creatinine. The linearity of the fluorescence obtained was verified with respect to hydrolysis time and creatinine content in a same sample.

[3] = 8% salt given simultaneously to hyperthyroid (T4) rats, 6 weeks, over the value of the hyperthyroid rats
[4] = rats, 6 weeks treatment (8% NaCl in diet; methimazole 300 mg/l drinking water; T4 200 μg/kg/day s.c.), versus control group
[5] = methimazole 300 mg/l given to rats treated with 8% salt (Hypothyroid+salt), 6 weeks, in comparison with rats treated with salt
[6] = rats, 6 weeks treatment (methimazole 300 mg/l drinking water), versus control group

SMILES	rise in AlaAp activity (AlaAp; [3])	AlaAp urinary activity change (AlaAp)	rise in AspAp activity (AspAp; [3])	rise in CysAp activity (CysAp; [3])	plasma creatinine change [1]	proteinuria change ([2]; 8% salt given simultaneously to hyperthyroid (T4) rats, 6 weeks)	proteinuria change [2, 4]	rise in GluAp activity (GluAp; [3])	GluAp urinary activity change (GluAp)	AlaAp activity change (AlaAp; [5])	AspAp urinary activity change (AspAp; [6])	CysAp urinary activity change (CysAp; [6])	GluAp activity change (GluAp; [5])
[Cl-].[Na+] [Salt, NaCl]	more than tenfold	significant increase	around fivefold	around fivefold	not accompanied	great increase	not accompanied with proteinuria	more than tenfold	significant increase	–	–	–	–
Cn1cc[nH]c1=S [methimazole, reference compound]	–	significantly decreased	–	–	–	–	no modification	–	no modification	decrease	no modification	no modification	decrease
